Data from US12171728B2, “Mixture of resveratrol supported on metal hydroxide and non-supported pure resveratrol for treating female fertility” (priority 2018, dated 2024).

Columns and labels:
female fertility = assay: Case reports of fertility enhancement in infertile/sub-fertile women; assay type: in vivo, human
From the text: A person is […] and is classified as infertile since has tried to conceive for more than 12 months without the initiation of a state of pregnancy. They are not affected by polycystic ovary syndrome according to the Rotterdam criteria.
The patient, a person classified as being sub-fertile because they have been trying to conceive for more than 12 months unsuccessfully. They are not affected by metabolic disorders such as polycystic ovary syndrome according to the Rotterdam criteria.
A person is […] and is classified as a sub-fertile because they have been trying to conceive for more than 12 months without starting a state of pregnancy. It is not affected by metabolic disorders such as polycystic ovary syndrome according to the Rotterdam criteria.

[1] = Pharmacokinetics in humans of resveratrol formulations (plasma profile of total resveratrol); assay type: in vivo, human; details: voluntary subjects, 180 mg
Method: FIG. 1. Plasma profile of total resveratrol (free resveratrol+its metabolites) following the administration to voluntary subjects of a single dose of resveratrol of 180 mg […]® (circles), from pure resveratrol not supported (squares) and a simulation of the combination of resveratrol from […]® and pure resveratrol not supported in the ratio 1:2 (triangles).
The pharmacokinetics in humans of different types of resveratrol formulations. The administration of 180 mg Resveratrol supported on magnesium hydroxide ([…]®) in voluntary subjects leads to a transient increase in total concentration (free resveratrol+resveratrol metabolites) plasmatic resveratrol with Time at the peak concentration of 30 minutes from administration, followed by a decay of about 40% in the period up to 180 minutes from administration.

Total plasma concentration of resveratrol compared with REVIFAST [1]: absolute lesser value
SMILES: Oc1ccc(C=Cc2cc(O)cc(O)c2)cc1 [pure resveratrol, resveratrol]
Pregnancy outcome (female fertility; case n1, infertile, 100 mg per day for 3 months): without having a pregnancy
Pregnancy outcome (female fertility; case n1, dosage doubled to 200 mg): has not changed its situation
